System: Friend-Leukämie-Virus
Assay: In vivo test in mice infected with Friend leukaemia virus (retrovirus model; spleen weight)
Set-up: species or system Maus
Settings: for Wirkung im Vergleich zu Suramin: summary in words of the two experiments of the table
Excerpt: Da für die HIV-Infektion des Menschen kein geeignetes Infektionsmodell bei Labortieren existiert, muß bei der Prüfung von Chemotherapeutika auf Infektionen mit anderen Retroviren zurückgegriffen werden. Sowie die Hemmung der Virusreplikation in vivo aufgrund einer spezifischen Blockierung der RT (= Reverse Transkriptase)-Aktivität untersucht wird, erscheint die Wahl eines solchen Ersatzmodelles gerechtfertigt. Im vorliegenden Fall wurde die Infektion der Maus mit dem Friend-Leukämie-Virus gewählt.
Dazu wurden normale Labormäuse (NMRI = Naval Medical Research Institute) durch intravenöse Injektion mit Friend-Virus enthaltendem Mäuseserum infiziert. Bei den unbehandelten Kontrolltieren entwickelte sich als Symptom der Infektion innerhalb von zwei Wochen eine deutliche Vergrößerung von Milz und Leber. Die Behandlung erfolgte über 10 Tage, beginnend 48 Stunden nach der Infektion. Am 14. Versuchstag wurden die tiere durch Luxation der Halswirbel getötet und geöffnet. Die Milz wurde entnommen und gewogen. Als Meßparameter der therapeutischen Wirksamkeit wurde das Milzgewicht der behandelten Tiere mit dem der unbehandelten Infektionskontrolle in Relation gesetzt.
Während bei uninfizierten ausgewachsenen Labormäusen (20 - 24 g Körpergewicht) die Milz weniger als 1 % des Körpergewichtes wog, erreichte bei infizierten Tieren die Milz am Ende des Versuchs bis zu etwa 10 % des Körpergewichtes. […] Suramin ist die Verbindung der Formel: [drawing 14]

Molecule	Wirkung im Vergleich zu Suramin	other results
Cc1ccc(C(=O)Nc2ccc(S(=O)(=O)O)c3cc(S(=O)(=O)O)cc(S(=O)(=O)O)c23)cc1NC(=O)c1cccc(NC(=O)Nc2cccc(C(=O)Nc3cc(C(=O)Nc4ccc(S(=O)(=O)O)c5cc(S(=O)(=O)O)cc(S(=O)(=O)O)c45)ccc3C)c2)c1 [Suramin, reference compound]		Milzwachstum (infected mice, treatment with the comparison preparation, mostly statistically significant (P 0,05)): Verringerung des Milzwachstums
OC[C@H]1O[C@@H](n2cnc3c(S)ncnc32)[C@H](O)[C@@H]1O [(1), 6-Mercapto-purin-9-D-ribosid]	gegenüber dem Suramin Vorteile besitzen	
6-Mercapto-9-[1,3-bis-(isopropoxy)-propyl-2-oxymethyl]-purin [Beispiel 2]	gegenüber dem Suramin Vorteile besitzen	
Nc1nc(S)c2ncn([C@@H]3O[C@H](CO)[C@@H](O)[C@H]3O)c2n1 [(2), 2-Amino-6-mercaptopurin-9-D-ribosid]		Relat Milzgewicht in % vom Körpergewicht (Versuch 1 (Virus-Verdünnung 1:5000), NMRI mice, 10 x 1,0 mg/Maus i.p., spleen weighed on day 14): 0,5 % vom Körpergewicht
6-Mercapto-9-[(1-hydroxy-3-isopropoxy-2-propoxy)methyl]-purin [Beispiel 3]	mit Suramin vergleichbar	

— EP0306845A2, “Medicinal preparation containing certain derivatives of 6-mercaptopurine, use of these derivatives of 6-mercaptopurine, process for the preparation of the medicinal preparation and some derivatives of 6-mercaptopurine and process for their preparation” (HOECHST AKTIENGESELLSCHAFT, priority 1987, dated 1989)
